Experimental data reported in a compilation of properties of binary mixtures (doi:10.1016/j.molliq.2016.04.040).

Assay: xn = mol fraction of the nth substance listed
Conditions: 100 kPa

CC(=O)[O-].CCC[NH3+] + CN1CCCC1=O
speed of sound [m/s]
Conditions	293.15 K	298.15 K	303.15 K	308.15 K	313.15 K	318.15 K	323.15 K	328.15 K	333.15 K
x2 = 0	1504.2	1490.7	–	1461.9	1447.5	–	–	1405.6	–
x2 = 0.05	1506.6	1493.5	–	1464	–	1434.5	1420.4	1406.6	1392.6
x2 = 0.0978	1509.6	1495.7	1481.1	1466.8	1451.7	1436.1	1421.4	1407.6	1393.3
x2 = 0.1978	1515	1501	1485.6	1471.1	–	1439.8	1424.3	1410	1395.1
x2 = 0.3095	1522.4	1506.4	1491.6	1474.8	1459.3	–	–	1413.1	1397.7
x2 = 0.3891	1527.5	1511.4	1495.3	1479	1462.8	1446.7	–	–	1399.2
x2 = 0.4931	1533.3	1517	1500.3	1484.2	1467.1	1451.1	1433.2	1417.5	1401.1
x2 = 0.599	1539.9	1521.9	–	1488.3	1471.5	1453.8	1436.8	1420.2	–
x2 = 0.7001	1545.8	1527.3	–	1492	1474.8	–	1439.8	1422.2	1405.1
x2 = 0.7998	–	1533.1	1515.2	1497.2	–	1461.4	–	–	1407.8
x2 = 0.891	–	1538.6	1519.6	1501.1	1482.7	1463.9	1445.1	1427.5	1409

CCC[NH3+].O=C[O-] + CN1CCCC1=O
speed of sound [m/s]
Conditions	293.15 K	298.15 K	303.15 K	308.15 K	313.15 K	318.15 K	323.15 K	328.15 K	333.15 K
x2 = 0	–	1540.7	–	1519.8	1509.5	1499.2	1489.1	1479	1469
x2 = 0.0494	1556.8	1546	1535.1	–	1513.7	1503.1	–	1482	1471.6
x2 = 0.1047	1557.7	1546.3	1534.9	1523.6	–	1501.3	1490.2	1479.3	1468.4
x2 = 0.1953	1559.5	1547.5	1535.4	1523.3	1511.4	1499.5	1487.7	1475.9	1464.2
x2 = 0.3021	–	1547.4	1534.2	–	1508.1	1495.2	1482.3	1469.4	1456.6
x2 = 0.4205	1563.9	–	–	1520.9	1506.7	1492.6	1478.5	1464.5	1450.5
x2 = 0.5063	1566	1550.9	1535.7	1520.7	1505.7	–	1475.9	1461.1	1446.3
x2 = 0.6001	1565.4	1549.7	1533.7	1517.8	1501.9	1486.2	–	–	1439.1
x2 = 0.7075	1565	1548.1	1531.2	1514.3	1497.6	1480.9	1464.2	1447.5	–
x2 = 0.7986	–	–	1529.2	1511.6	–	1476.8	1459.5	1442.2	–
x2 = 0.9048	–	1545.7	1527.6	–	1491.4	1473.5	1455.7	1438	1420.3

CCC[NH3+].O=C[O-] + O
speed of sound [m/s]
Conditions	293.15 K	298.15 K	303.15 K	308.15 K	313.15 K	318.15 K	323.15 K	328.15 K	333.15 K
x2 = 0	1552	1540.7	1530.2	–	1509.5	1499.2	1489.1	1479	1469
x2 = 0.0505	1557.1	1546.6	1536.1	1525.7	1515.4	–	1495.1	1485	1474.9
x2 = 0.1036	1565.1	1554.7	1544.2	1533.9	1523.7	1513.5	1503.4	1493.4	1483.2
x2 = 0.2456	1588.7	1578.5	1568.5	–	1548.1	1538	1528	–	–
x2 = 0.2838	–	1585.9	1575.7	1565.6	–	1545.4	–	1525.4	–
x2 = 0.429	1615.5	1605.7	–	–	1575.8	1566	1556	1546.1	1536
x2 = 0.5184	1632.4	–	1612.8	1603	1593	1583.1	1573.2	1563.3	–
x2 = 0.6064	–	–	1635.4	1625.7	1616	1606.2	1596.4	–	1576.6
x2 = 0.6994	1687.5	1678.4	1669.2	1659.9	1650.5	1641	1631.5	1621.8	1611.9
x2 = 0.8008	1727.2	1719.4	1711.3	–	1694.3	–	1676.4	1666.8	1657.3
x2 = 0.9026	1730	1725.8	–	1716.1	1710.7	1704.7	1698.3	1691.5	1684.3

CC(=O)[O-].CCC[NH3+] + O
speed of sound [m/s]
Conditions	293.15 K	298.15 K	303.15 K	308.15 K	313.15 K	318.15 K	323.15 K	328.15 K	333.15 K
x2 = 0	1504.2	1490.7	1476.6	1461.9	1447.5	1433.3	–	1405.6	1391.1
x2 = 0.05	1506.6	1493.5	1478.6	1464	1449.1	1434.5	1420.4	1406.6	1392.6
x2 = 0.0978	1509.6	1495.7	–	1466.8	1451.7	1436.1	–	1407.6	1393.3
x2 = 0.1978	–	–	1485.6	–	–	1439.8	1424.3	–	1395.1
x2 = 0.3095	–	1506.4	1491.6	1474.8	1459.3	–	1428	1413.1	1397.7
x2 = 0.3891	1527.5	1511.4	1495.3	1479	1462.8	1446.7	1430.3	1414.7	1399.2
x2 = 0.4931	–	1517	1500.3	–	–	–	1433.2	1417.5	–
x2 = 0.599	1539.9	1521.9	1505.3	1488.3	1471.5	–	1436.8	1420.2	1402.8
x2 = 0.7001	1545.8	1527.3	1510	1492	1474.8	1457.5	1439.8	1422.2	1405.1
x2 = 0.7998	1552.5	–	–	1497.2	1478.8	1461.4	–	1424.9	1407.8
x2 = 0.891	–	1538.6	1519.6	1501.1	1482.7	1463.9	–	–	1409
